Assay results taken from patent US20220054595A1, “Formulation Including a Combination of beta-Endorphin and Adrenocorticotropic Hormone” (Adamis Pharmaceuticals Corporation, priority 2019, published 2022).

Experiments:
[1] = test system: EAE induced in SJL mice by PLP139-151/CFA immunization; experiment: EAE in SJL mice: histological and immunohistological analyses; assay type: in vivo, mouse
Method: (§1) The effect of administration of two dosages of ACTH and β-endorphin on severity and relapse in EAE was evaluated. EAE was induced in SJL mice by PLP139-151/CFA immunization on Day 0. Treatment was late therapeutic, starting on Day 20 after immunization for each mouse. Mice were observed through the end of the study, Day 42 after immunization. Four groups of 20 mice each received one of the following treatments: vehicle (a negative control); 10 mg/kg oral prednisolone daily (reference treatment); 32 μg ACTH+16 μg endorphin by subcutaneous injection, every 2nd day (low dose); or 64 μg ACTH+32 μg β-endorphin by subcutaneous injection, every 2nd day (high dose).
Treatment started on the day of group assignment (Day 20 after immunization). This was the time of the expected end of the first wave of EAE and before relapses were expected to begin. Treatment continued through Day 41. EAE score was determined daily by a person unaware of both treatment and of previous scores for each mouse. Weight was measured 3 times a week. Five mice in each group were euthanized on day 30 and the fifteen remaining mice euthanized at the end of the study (Day 42). Histological and immunohistological analyses were performed on tissue collected from the euthanized mice.

[2] = test system: EAE induced in SJL mice by PLP139-151/CFA immunization; experiment: EAE in SJL mice, late therapeutic treatment: clinical findings; assay type: in vivo, mouse
Method: as §1
Mice were injected subcutaneously at four sites in the back with emulsion containing PLP139-151 (native sequence) from HOOKE KIT™ PLP139-151/CFA Emulsion, catalog number EK-0120 (Hooke Laboratories, Lawrence Mass.). Two sites of injection were in the upper back approximately 1 cm caudal of the neck line. The other two sites were in the lower back approximately 2 cm cranial of the base of the tail. The injection volume was 0.05 mL at each site. Even without treatment, most mice recover spontaneously after the first wave of disease. In the SJL model, EAE develops 10-15 days after immunization in 90-100% of immunized mice. The first wave of EAE lasts several days and most mice fully or almost fully recover from this first wave. After a disease-free period, which can last from one day to several months, most mice relapse. During the first 5-7 weeks after immunization, 50-100% of mice will develop a relapse. Each wave of paralysis results in body weight loss at onset, most of which is regained at recovery from the wave. The greatest weight loss is during the first wave of EAE. During the chronic phase of disease, the average EAE body weight is relatively stable, with normal slow increase with age. Since individual mice experience relapses at different times, only a few mice in each group are acutely sick at any given time after the first wave of EAE. Therefore, significant differences in relative body weight between groups are often not found after the first wave of disease in this model. In the vehicle treated group, disease developed as expected for this model. Five (5) mice were euthanized on Day 30 for analysis. Relapse occurred in 7 out of the 15 remaining mice, which were followed to Day 42, with typical course and severity of disease.
100 EAE induced mice were initially considered a single group and were scored daily starting on Day 9 after immunization. On Day 20, mice were assigned to the experimental groups in a balanced manner to achieve groups with similar times of EAE onset, similar maximum EAE score and similar scores at the time of enrollment into treatment (see Table 2). The remaining mice, which developed EAE last, or which developed unusual signs of EAE such as head tilting, were not assigned to any treatment group. […]
Treatment started on the day of group assignment (Day 20 after immunization). […] EAE score was determined daily by a person unaware of both treatment and of previous scores for each mouse. Weight was measured 3 times a week. […]

[3] = test system: acute epileptic extensor spasms (AEES) in Ts65Dn mouse; conditions: GABABR agonist-treated Ts65Dn mouse; cited from earlier work

Row | Compound | Demyelination (anti-MBP) ± SD ([1]; anti-myelin basic protein staining score 0-5) | GFAP ± SD (% of area) ([1]; gliosis, % of total spinal cord area) | lba1 ± SD (% of area) ([1]; microglial activation, % of total spinal cord area) | Demyelination, anti-myelin basic protein staining score versus vehicle (in words) ([1]; mouse, in vivo) | Gliosis (scarring), area of anti-GFAP staining versus vehicle (in words) ([1]; mouse, in vivo) | Inflammation and inflammatory infiltrates, number of inflammatory foci versus vehicle (in words) ([1]; mouse, in vivo) | Inflammatory foci/section ± SD ([1]; spinal cord histology of euthanized mice) | End score ± SD ([2]; EAE score (scale 0-5) at end of study, mice followed until Day 42) | Body weight change versus vehicle control (in words) ([2]; end of study) | MMS of relapse period ± SD (Days 25-42) ([2]; mean maximal EAE score (scale 0-5), mice followed until Day 42, all mice in the group) | Incidence of relapse ([2]; mice followed until Day 42, treatment Day 20-41, mice that relapsed as proportion of surviving mice that developed first wave of EAE) | End % body weight ± SD ([2]; relative body weight at end of study, mice followed until Day 42) | Reduction of AEES [3]
1 | C[C@]12C=CC(=O)C=C1CC[C@@H]1[C@@H]2[C@@H](O)C[C@@]2(C)[C@H]1CC[C@]2(O)C(=O)CO [Prednisolone, prednisolone] | 0.9 ± 0.6 | 13.3 ± 2.0 % of area | 4.0 ± 1.2 % of area | only at best a trend to reduction | a higher level of gliosis | only at best a trend to reduction | 3.8 ± 2.4 foci/section | 1.47 ± 1.04 | statistically significant loss of weight versus the vehicle control | 2.07 ± 1.10 | 33.3% | 88.6% ± 9.3% | –
2 | Rodent ACTH: murine ACTH, SEQ ID NO: 9, SYSMEHFRWGKPVGKKRRPVKVYPNVAENESAEAFPLEF (listed as Mus musculus) | – | – | – | – | – | – | – | – | – | – | – | – | can significantly reduce AEES
